Experimental data published in US20110201558A1, “Anaplerotic Therapy for Alzheimer's Disease and the Aging Brain” (Baylor Research Institute, priority 2009, published 2011).

Assays:
mouse brain = conditions: infusion of propionyl-CoA precursors; compared with heptanoate, BKP, or propionate; cited from earlier work
[1] = design: species or system human; conditions: in vivo
Description: For example, when using C7 as the source of odd-chain fatty acids these can be provided in the form of a triglyceride, e.g., tri-heptanoin. The triglyceride triheptanoin is provided in a concentration sufficient to provide a beneficial effect is most useful in this aspect of the present invention. The seven-carbon fatty acid may be provided, e.g.:
Goals have been set using 4 g/kg (within ideal body weight (IBW) range) for infants, children, and some adolescents. Goals have been set using 2 g/kg (within IBW range) for adolescents. Goals have been set using 2 g/kg (within IBW range) for adults; but toleration is 1-1.2 g per kg (which is 35% kcal of estimated needs).

[2] = tested on: patients with inherited disorders of fat and glycogen metabolism as well as pyruvate carboxylase deficiency; conditions: cited from earlier work

| SMILES | anaplerosis (stimulation of the CAC and energy production) in mouse brain (mouse brain) | toleration [1] | indirect measures of energy metabolism in the brain and peripheral organs such as muscle and heart [2] |
| --- | --- | --- | --- |
| CCCCC(=O)O [pentanoate] | superior |  |  |
| CCCCCCC(=O)OCC(COC(=O)CCCCCC)OC(=O)CCCCCC [triheptanoin] |  | 1-1.2 g per kg | positive effects |
